Source: patent US20210298299A1 (priority 2018, published 2021)
Like-named read-outs stand apart in the source and are kept apart here.

Columns and labels:
Type in all cases: in vivo
[1] = system: cucumber anthracnose fungus Colletotrichum orbiculare; conditions: alone, rating scale of Test Example 1
[2] = system: rice blast fungus Pyricularia oryzae; conditions: alone
[3] = system: leaf rust fungus Puccinia recondita; experiment: Test for control efficacy against wheat leaf rust; conditions: alone, scale of 0 to 10
Method: Test for Control Efficacy Against Wheat Leaf Rust
The agrochemical formulations diluted to predetermined concentrations were applied to wheat plants at a predetermined amount with a spray gun. After air-drying, the wheat plants were spray-inoculated with a spore suspension of the leaf rust fungus Puccinia recondita (1.0×10^7 spores/mL). After that, the wheat pots were kept in a greenhouse under light conditions at 15° C. and 100% RH to induce the development of the disease. At 7 days after the inoculation, the disease area percentage was indexed on a scale of 0 to 10 to evaluate the control efficacy.

[4] = system: wheat speckled leaf blotch fungus Septoria tritici; experiment: Test for wheat speckled leaf blotch (Septoria tritici); conditions: alone
Method: Test for Wheat Speckled Leaf Blotch (Septoria tritici)
The agrochemical formulations diluted to predetermined concentrations were applied to wheat plants at a predetermined amount with a spray gun. After air-drying, the wheat plants were spray-inoculated with a spore suspension of the wheat speckled leaf blotch fungus Septoria tritici (1.0×10^7 spores/mL). After that, the wheat pots were kept in a greenhouse under light conditions at 15° C. and 100% RH to induce the development of the disease. At 17 days after the inoculation, the disease area percentage was indexed on a scale of 0 to 10 to evaluate the control efficacy. The control value is expressed in percentage (%) as shown below or in index form as in Example 1.
Disease Severity Index Scale
0: No manifestation of disease
1: Lesion area percentage is 1 to 10%.
2: Lesion area percentage is 11 to 20%.
3: Lesion area percentage is 21 to 30%.
4: Lesion area percentage is 31 to 40%.
5: Lesion area percentage is 41 to 50%.
6: Lesion area percentage is 51 to 60%.
7: Lesion area percentage is 61 to 70%.
8: Lesion area percentage is 71 to 80%.
9: Lesion area percentage is 81 to 90%.
10: Lesion area percentage is 91 to 100%.
Control value (%)=(disease severity index in non-treatment plot−disease severity index in treatment plot)×100/disease severity index in non-treatment plot [Math. 3]

[5] = system: cucumber gray mold fungus Botrytis cinerea; experiment: Test for control efficacy against cucumber gray mold; conditions: alone, from diameter of lesion area
Method: Test for Control Efficacy Against Cucumber Gray Mold
The agrochemical formulations diluted to predetermined concentrations were applied to the foliage of cucumber plants (variety: Suuyou) at the one-leaf stage grown in individual pots. The application rate was 50 mL per pot. On the day following the application, 6-mm-diameter paper disks were impregnated with a spore suspension of the cucumber gray mold fungus Botrytis cinerea cultured on PSA medium, and inoculated onto cucumber true leaves. The pots were kept at a temperature of 20° C. and a humidity of 100%. At 6 days after the inoculation, the control value was determined by the equation 4 shown below.
Control value (%)=(diameter of lesion area in non-treatment plot−diameter of lesion area in treatment plot)×100/diameter of lesion area in non-treatment plot [Math. 4]

[6] = system: tomato late blight fungus Phytophthora infestans; conditions: alone, rating scale of Test Example 2
Laodelphax striatellus = experiment: Test for control efficacy against Laodelphax striatellus; conditions: alone, 30 days after the agrochemical treatment
Excerpt: Test for Control Efficacy Test Against Laodelphax striatellus
Adults of the test insect were released onto rice plants (variety: Kinmaze, 95 days after transplantation) grown in individual 2-L pots (8 females and 5 males per pot). At 11 days after the insect release (when hatched larvae were observed), mixed formulations of compound [1-7] and other agrochemicals and each individual agrochemical (prescribed effective doses) were separately applied. After air-drying and at 10 days after the agrochemical treatment, adults of the test insect were additionally released onto the rice plants (8 females and 5 males per pot). At 30 days after the agrochemical treatment, the number of survivors was measured, and the control value was calculated by equation 6. In addition, the expected value E for the mixed use was calculated by Colby's equation as described in Test Example 1. When the actual control efficacy of combined treatment with two different agrochemicals is greater than the expected value E, the combination can be regarded as having synergistic effect.
Control value (%)=(1−number of survivors/number of survivors in control plot)×100 [Math. 6]
Assuming that the control value for “no grade” is 49%, when the control values of the two different agrochemicals are both 49%, the expected value E calculated by Colby's equation is as follows: E=(49+49)−(49×49/100)=73.99. The control value of 73.99 corresponds to grade C. Therefore, when both the agrochemicals are graded as no grade, the expected value is C.

Plutella xylostella = experiment: Test for control efficacy against Plutella xylostella; conditions: alone
Excerpt: Test for Control Efficacy Against Plutella xylostella
Brassica oleracea var. capitata (variety: YR Seitoku) seedlings were planted in a glass greenhouse, and after reaching the 12- to 15-leaf stage, the seedlings were inoculated with 3rd-instar larvae of Plutella xylostella. The number of surviving larvae per three plants before agrochemical treatment was counted. A mixed formulation of compound [1-2] and flubendiamide (prepared according to Formulation Example 5) and each individual agrochemical were separately diluted to predetermined concentrations in water and applied to the Brassica oleracea var. capitata plants. The number of surviving larvae was counted at 2 and 6 days after the application, and the control efficacy was calculated by the equation 5 shown below. In addition, the expected value E was calculated by Colby's equation as described in Test Example 1.
Control efficacy (%)=100−{(Ta×Cb)/(Tb×Ca)}×100 [Math. 5]
Ta=number of survivors after agrochemical treatment in treatment plot
Tb=number of survivors before agrochemical treatment in treatment plot […]
As a result of the test for control efficacy against Plutella xylostella, the control efficacy of the composition composed of compound […] was greater than the expected value E calculated by Colby's equation from the control efficacy of the individual compounds. […]

Compound Fc1ccc([C@]2(Cn3cncn3)O[C@H]2c2ccccc2Cl)cc1 (racemic) [Epoxiconazole 8EC, epoxiconazole] has a Control value ([1]; 0.5 ppm) of 0.0, a Control value ([1]; 2 ppm) of 0.0 and a Control value ([2]; 0.5 ppm, ten-point scale) of 0.0. It also gave a Control value ([2]; 2 ppm, ten-point scale) of 3.0, a Control value ([2]; 8 ppm, ten-point scale) of 10 and a Control value ([3]; 0.5 ppm) of 7.0. The Control value ([3]; 2 ppm) was 10.0, the “Control value (%)” value ([4]; 0.4 ppm, Compound [1-5] series) was 0% and the “Control value (%)” value ([4]; 1.1 ppm, Compound [1-5] series) was 0%. For the same compound, the “Control value (%)” value ([4]; 2 ppm, Compound [1-7] series) was 0.0%, the “Control value (%)” value ([4]; 3.3 ppm, Compound [1-5] series) was 16% and the “Control value (%)” value ([4]; 8 ppm, Compound [1-7] series) was 6.0%. For the same compound, the “Control value (%)” value ([4]; 10 ppm, Compound [1-5] series) was 86%, the Control value ([5]; 67 ppm) was 55% and the Control value ([5]; 200 ppm) was 100%.

CO/C=C(/C(=O)OC)c1ccccc1Oc1cc(Oc2ccccc2C#N)ncn1 [Azoxystrobin 20SC, azoxystrobin] gave a Control value ([6]; 0.3 ppm) of 0.0, a Control value ([6]; 3 ppm) of 2.0 and a Control value ([1]; 0.3 ppm) of 2.0. It also gave a Control value ([1]; 3 ppm) of 8.0, a Control value ([2]; 0.3 ppm, ten-point scale) of 1.0 and a Control value ([2]; 3 ppm, ten-point scale) of 10. For the same compound, the Control value ([3]; 0.3 ppm) was 0.0, the Control value ([3]; 3 ppm) was 9.0 and the Grade (Laodelphax striatellus; 100 ppm) was “No grade (less than 50%)”. For the same compound, the Grade (Laodelphax striatellus; 500 ppm) was “No grade (less than 50%)”.

For O=C(Nc1ccccc1-c1ccc(Cl)cc1)c1cccnc1Cl [Boscalid 50WG, boscalid], the Control value ([5]; 2 ppm) was 8%, the Control value ([5]; 7 ppm) was 18% and the Control value ([5]; 22 ppm) was 20%.

CCC(Nc1ncnc(C)c1Cl)c1ccc(OC(F)F)cc1 (stereo not drawn) [Diflumetorim 10EC, diflumetorim] was tested, and the Control value ([1]; 10 ppm) was 2.0, the Control value ([2]; 10 ppm, ten-point scale) was 8.0 and the Control value ([3]; 10 ppm) was 1.0.

CC1(C(=O)Nc2ccc(O)c(Cl)c2Cl)CCCCC1 [Fenhexamid 50SC, fenhexamid] showed a Control value ([5]; 7 ppm) of 0%, a Control value ([5]; 22 ppm) of 0% and a Control value ([5]; 200 ppm) of 53%.

In the case of N#Cc1c[nH]cc1-c1cccc2c1OC(F)(F)O2 [Fludioxonil 20SC, fludioxonil], the Control value ([1]; 3 ppm) is reported as 7.0, the Control value ([1]; 10 ppm) is reported as 9.5 and the Control value ([2]; 3 ppm, ten-point scale) is reported as 6.0. It also gave a Control value ([2]; 10 ppm, ten-point scale) of 9.0, a Control value ([3]; 3 ppm) of 0.0 and a Control value ([3]; 10 ppm) of 0.0. It also gave a Control value ([3]; 200 ppm) of 4.0, a Control value ([5]; 7 ppm) of 0% and a Control value ([5]; 22 ppm) of 59%.

With O=C(NCCc1ncc(C(F)(F)F)cc1Cl)c1ccccc1C(F)(F)F [Fluopyram 50SC, fluopyram] the Control value ([1]; 3 ppm) was 0.0, the Control value ([1]; 10 ppm) was 2.0 and the Control value ([2]; regardless of the concentration) was 0. The “Control value (%)” value ([4]; 10 ppm, Compound [1-7] series) was 0.0%.

In the case of Cn1cc(C(=O)Nc2ccccc2-c2cc(F)c(F)c(F)c2)c(C(F)F)n1 [Fluxapyroxad 6EC, fluxapyroxad], the Control value ([6]; 1 ppm) is reported as 0.0, the Control value ([1]; 1 ppm) is reported as 0.0 and the Control value ([2]; 0.3 ppm, ten-point scale) is reported as 0.0. For the same compound, the Control value ([2]; 1 ppm, ten-point scale) was 0.0, the “Control value (%)” value ([4]; 0.07 ppm, Compound [1-5] series) was 16% and the “Control value (%)” value ([4]; 0.22 ppm, Compound [1-5] series) was 31%. For the same compound, the “Control value (%)” value ([4]; 0.67 ppm, Compound [1-5] series) was 65%, the “Control value (%)” value ([4]; 1 ppm, Compound [1-7] series) was 0.0% and the “Control value (%)” value ([4]; 2.0 ppm, Compound [1-5] series) was 98%. The “Control value (%)” value ([4]; 6.0 ppm, Compound [1-5] series) was 99%.

OC(Cc1ccccc1Cl)(Cn1nc[nH]c1=S)C1(Cl)CC1 (stereo not drawn) [Prothioconazole 25EC, prothioconazole] was tested, and the Control value ([6]; 25 ppm) was 0.0, the Control value ([1]; 6.25 ppm) was 8.0 and the Control value ([1]; 25 ppm) was 10. The Control value ([2]; 6.25 ppm, ten-point scale) was 5.0, the Control value ([2]; 25 ppm, ten-point scale) was 9.0 and the Control value ([3]; 6.25 ppm) was 0.0. It also gave a Control value ([3]; 25 ppm) of 5.0.

COC(=O)N(OC)c1ccccc1COc1ccn(-c2ccc(Cl)cc2)n1 [Pyraclostrobin 25EC, pyraclostrobin] was tested, and the Control value ([6]; 3 ppm) was 4.0, the Control value ([1]; 3 ppm) was 7.0 and the Control value ([3]; 1 ppm) was 5.0. The Control value ([3]; 3 ppm) was 9.0, the Grade (Plutella xylostella; 10 ppm) was “No grade (less than 50%)” and the Grade (Plutella xylostella; 50 ppm) was “A (100%)”. For the same compound, the Grade (Laodelphax striatellus; 10 ppm) was “No grade (less than 50%)” and the Grade (Laodelphax striatellus; 50 ppm) was “A (100%)”.

With O=C(Nc1ccccc1-c1ccc(F)c(F)c1)c1nccnc1C(F)(F)F [Pyraziflumid 20SC, pyraziflumid] the Control value ([6]; 2 ppm) was 0.0, the Control value ([1]; 0.5 ppm) was 0.0 and the Control value ([1]; 2 ppm) was 0.0. The Control value ([3]; 2 ppm) was 2.0, the “Control value (%)” value ([4]; 0.2 ppm, Compound [1-5] series) was 1% and the “Control value (%)” value ([4]; 0.7 ppm, Compound [1-5] series) was 53%. The “Control value (%)” value ([4]; 2 ppm, Compound [1-7] series) was 6.0%, the “Control value (%)” value ([4]; 2.2 ppm, Compound [1-5] series) was 92% and the “Control value (%)” value ([4]; 6.7 ppm, Compound [1-5] series) was 99%. The “Control value (%)” value ([4]; 20 ppm, Compound [1-5] series) was 100%.

Work on CC(C)(C)C(O)(CCc1ccc(Cl)cc1)Cn1cncn1 (stereo not drawn) [Tebuconazole 25EW, tebuconazole] yielded a Control value ([6]; 1 ppm) of 0.0, a Control value ([1]; 0.3 ppm) of 0.0 and a Control value ([2]; 0.3 ppm, ten-point scale) of 0.0. For the same compound, the Control value ([2]; 1 ppm, ten-point scale) was 0.0 and the “Control value (%)” value ([4]; 1 ppm, Compound [1-7] series) was 0.0%.
